Experimental data as given in PubChem BioAssay AID248 (DTP/NCI, 2004).
Several values for one entry are separate records, joined by “and”; a condition that tells them apart may be missing. Equal values may be shown once. Toxic doses and inconclusive results are not listed. No stated cut-off is given here; in the data, active means T/C of 150% or more; inactive means T/C below 125%.

Test system: L1210 leukemia ip in BDF1 mice, survival T/C
Assay: NCI In Vivo Anticancer Drug Screen. Data for tumor model L1210 Leukemia (intraperitoneal) in B6D2F1 (BDF1) mice
Details: higher = longer survival
Method in brief: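 Read-out is survival time, reported as the treated-group measurement over the vehicle-control measurement.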

Measured: T/C

CC[C@]1(O)C[C@H]2CN(CCc3c([nH]c4ccccc34)[C@@](C(=O)OC)(c3cc4c(cc3OC)N(C=O)[C@H]3[C@@](O)(C(=O)OC)[C@H](OC(C)=O)[C@]5(CC)C=CCN6CC[C@]43[C@@H]65)C2)C1
inactive: endpoint: mean survival time, dose: 0.03 mg/kg/injection, schedule: Q01DX015 (ip), vehicle: saline 108 % of control | endpoint: mean survival time, dose: 0.03 mg/kg/injection, schedule: Q03HX032 (ip), vehicle: saline 107 % of control | endpoint: mean survival time, dose: 0.03 mg/kg/injection, schedule: Q## X032 (ip), vehicle: saline 107 % of control | endpoint: mean survival time, dose: 0.04 mg/kg/injection, schedule: Q03HX032 (ip), vehicle: saline 109 % of control | endpoint: mean survival time, dose: 0.04 mg/kg/injection, schedule: Q## X032 (ip), vehicle: saline 109 % of control | endpoint: mean survival time, dose: 0.05 mg/kg/injection, schedule: Q01DX005 (ip), vehicle: saline 101 % of control | endpoint: mean survival time, dose: 0.05 mg/kg/injection, schedule: Q01DX005 (iv), vehicle: saline 101 % of control | endpoint: mean survival time, dose: 0.05 mg/kg/injection, schedule: Q01DX015 (ip), vehicle: saline 108 % of control | endpoint: mean survival time, dose: 0.06 mg/kg/injection, schedule: Q01DX Z (ip), vehicle: water 105 % of control | endpoint: mean survival time, dose: 0.06 mg/kg/injection, schedule: Q## X032 (ip), vehicle: saline 113 % of control | endpoint: mean survival time, dose: 0.07 mg/kg/injection, schedule: Q03HX032 (ip), vehicle: saline 113 % of control | endpoint: mean survival time, dose: 0.08 mg/kg/injection, schedule: Q04DX002 (ip), vehicle: saline 102 % of control and 104 % of control | endpoint: mean survival time, dose: 0.1 mg/kg/injection, schedule: Q01DX005 (ip), vehicle: saline 116 % of control | endpoint: mean survival time, dose: 0.1 mg/kg/injection, schedule: Q01DX005 (iv), vehicle: saline 100 % of control | endpoint: mean survival time, dose: 0.12 mg/kg/injection, schedule: Q01DX Z (ip), vehicle: water 108 % of control | endpoint: mean survival time, dose: 0.15 mg/kg/injection, schedule: Q01DX015 (ip), vehicle: saline 114 % of control | endpoint: mean survival time, dose: 0.15 mg/kg/injection, schedule: Q04DX002 (ip), vehicle: saline 100 % of control and 105 % of control | endpoint: mean survival time, dose: 0.2 mg/kg/injection, schedule: Q01DX005 (ip), vehicle: saline 115 % of control | endpoint: mean survival time, dose: 0.2 mg/kg/injection, schedule: Q01DX005 (iv), vehicle: saline 106 % of control | endpoint: mean survival time, dose: 0.2 mg/kg/injection, schedule: Q04DX002 (ip), vehicle: saline 104 % of control | endpoint: mean survival time, dose: 0.23 mg/kg/injection, schedule: Q04DX003 (ip), vehicle: saline 110 % of control | endpoint: mean survival time, dose: 0.25 mg/kg/injection, schedule: Q01DX Z (ip), vehicle: water 115 % of control | endpoint: mean survival time, dose: 0.39 mg/kg/injection, schedule: Q04DX002 (ip), vehicle: saline 110 % of control | endpoint: mean survival time, dose: 0.4 mg/kg/injection, schedule: Q01DX005 (ip), vehicle: saline 105 % of control | endpoint: mean survival time, dose: 0.4 mg/kg/injection, schedule: Q01DX005 (iv), vehicle: saline 100 % of control | endpoint: mean survival time, dose: 0.5 mg/kg/injection, schedule: Q01DX009 (ip), vehicle: saline 105 % of control | endpoint: mean survival time, dose: 0.5 mg/kg/injection, schedule: Q01DX Z (ip), vehicle: saline 97 % of control | endpoint: mean survival time, dose: 0.5 mg/kg/injection, schedule: Q01DX Z (ip), vehicle: water 108 % of control | endpoint: mean survival time, dose: 0.5 mg/kg/injection, schedule: Q04DX004 (ip), vehicle: saline 110 % of control | endpoint: mean survival time, dose: 0.75 mg/kg/injection, schedule: Q01DX015 (ip), vehicle: saline 113 % of control | endpoint: mean survival time, dose: 0.8 mg/kg/injection, schedule: Q01DX001 (ip), vehicle: saline 115 % of control | endpoint: mean survival time, dose: 0.8 mg/kg/injection, schedule: Q01DX005 (iv), vehicle: saline 116 % of control | endpoint: mean survival time, dose: 0.8 mg/kg/injection, schedule: Q01DX015 (ip), vehicle: saline 108 % of control | endpoint: mean survival time, dose: 1.0 mg/kg/injection, schedule: Q01DX Z (ip), vehicle: water 95 % of control and 99 % of control | endpoint: mean survival time, dose: 1.0 mg/kg/injection, schedule: Q04DX004 (ip), vehicle: saline 115 % of control | endpoint: mean survival time, dose: 1.12 mg/kg/injection, schedule: Q01DX015 (ip), vehicle: saline 105 % of control | endpoint: mean survival time, dose: 1.5 mg/kg/injection, schedule: Q01DX001 (ip), vehicle: water 109 % of control and 112 % of control | endpoint: mean survival time, dose: 1.5 mg/kg/injection, schedule: Q04DX002 (ip), vehicle: saline 116 % of control | endpoint: mean survival time, dose: 6.0 mg/kg/injection, schedule: Q01DX001 (ip), vehicle: water 107 % of control | endpoint: mean survival time, dose: 3.2 micrograms/kg/injection, schedule: Q01DX015 (ip), vehicle: saline 94 % of control | endpoint: mean survival time, dose: 6.3 micrograms/kg/injection, schedule: Q01DX015 (ip), vehicle: saline 97 % of control | endpoint: mean survival time, dose: 11.0 micrograms/kg/injection, schedule: Q01DX009 (ip), vehicle: saline 102 % of control and 109 % of control | endpoint: mean survival time, dose: 12.5 micrograms/kg/injection, schedule: Q01DX015 (ip), vehicle: saline 98 % of control | endpoint: mean survival time, dose: 15.6 micrograms/kg/injection, schedule: Q03HX008 (ip), vehicle: clinical formulation 104 % of control | endpoint: mean survival time, dose: 15.6 micrograms/kg/injection, schedule: Q03HX016 (ip), vehicle: clinical formulation 100 % of control | endpoint: mean survival time, dose: 15.6 micrograms/kg/injection, schedule: Q03HX024 (ip), vehicle: clinical formulation 102 % of control | endpoint: mean survival time, dose: 23.0 micrograms/kg/injection, schedule: Q01DX009 (ip), vehicle: saline 98 % of control and 100 % of control | endpoint: mean survival time, dose: 25.0 micrograms/kg/injection, schedule: Q01DX015 (ip), vehicle: saline 112 % of control | endpoint: mean survival time, dose: 31.2 micrograms/kg/injection, schedule: Q01DX009 (ip), vehicle: clinical formulation 102 % of control | endpoint: mean survival time, dose: 31.2 micrograms/kg/injection, schedule: Q03HX008 (ip), vehicle: clinical formulation 106 % of control | endpoint: mean survival time, dose: 31.2 micrograms/kg/injection, schedule: Q03HX016 (ip), vehicle: clinical formulation 105 % of control | endpoint: mean survival time, dose: 47.0 micrograms/kg/injection, schedule: Q01DX009 (ip), vehicle: saline 109 % of control and 114 % of control | endpoint: mean survival time, dose: 50.0 micrograms/kg/injection, schedule: Q01DX015 (ip), vehicle: saline 113 % of control | endpoint: mean survival time, dose: 62.5 micrograms/kg/injection, schedule: Q03HX008 (ip), vehicle: clinical formulation 112 % of control | endpoint: mean survival time, dose: 62.5 micrograms/kg/injection, schedule: Q03HX016 (ip), vehicle: clinical formulation 105 % of control | endpoint: mean survival time, dose: 62.5 micrograms/kg/injection, schedule: Q04DX003 (ip), vehicle: clinical formulation 113 % of control | endpoint: mean survival time, dose: 100.0 micrograms/kg/injection, schedule: Q01DX015 (ip), vehicle: saline 103 % of control | endpoint: mean survival time, dose: 125.0 micrograms/kg/injection, schedule: Q01DX001 (ip), vehicle: clinical formulation 104 % of control | endpoint: mean survival time, dose: 125.0 micrograms/kg/injection, schedule: Q04DX003 (ip), vehicle: clinical formulation 115 % of control | endpoint: mean survival time, dose: 125.0 micrograms/kg/injection, schedule: Q08DX002 (ip), vehicle: clinical formulation 101 % of control | endpoint: mean survival time, dose: 200.0 micrograms/kg/injection, schedule: Q01DX015 (ip), vehicle: saline 115 % of control | endpoint: mean survival time, dose: 216.0 micrograms/kg/injection, schedule: Q04DX003 (ip), vehicle: saline 116 % of control | endpoint: mean survival time, dose: 250.0 micrograms/kg/injection, schedule: Q01DX001 (ip), vehicle: clinical formulation 106 % of control | endpoint: mean survival time, dose: 250.0 micrograms/kg/injection, schedule: Q03HX024 (ip), vehicle: clinical formulation 98 % of control | endpoint: mean survival time, dose: 250.0 micrograms/kg/injection, schedule: Q04DX003 (ip), vehicle: clinical formulation 116 % of control | endpoint: mean survival time, dose: 250.0 micrograms/kg/injection, schedule: Q08DX002 (ip), vehicle: clinical formulation 108 % of control | endpoint: mean survival time, dose: 500.0 micrograms/kg/injection, schedule: Q01DX001 (ip), vehicle: clinical formulation 113 % of control | endpoint: mean survival time, dose: 500.0 micrograms/kg/injection, schedule: Q08DX002 (ip), vehicle: clinical formulation 106 % of control | endpoint: mean survival time, dose: 600.0 micrograms/kg/injection, schedule: Q04DX003 (ip), vehicle: saline 112 % of control | endpoint: mean survival time, dose: 740.0 micrograms/kg/injection, schedule: Q01DX009 (ip), vehicle: saline 92 % of control and 102 % of control | endpoint: mean survival time, dose: 1000.0 micrograms/kg/injection, schedule: Q08DX002 (ip), vehicle: clinical formulation 108 % of control | endpoint: mean survival time, dose: 2000.0 micrograms/kg/injection, schedule: Q01DX001 (ip), vehicle: clinical formulation 116 % of control | endpoint: median survival time, dose: 0.02 mg/kg/injection, schedule: Q01DX001 (ip), vehicle: water 103 % of control | endpoint: median survival time, dose: 0.03 mg/kg/injection, schedule: Q01DX001 (ip), vehicle: water 103 % of control | endpoint: median survival time, dose: 0.05 mg/kg/injection, schedule: Q01DX001 (ip), vehicle: water 108 % of control | endpoint: median survival time, dose: 0.14 mg/kg/injection, schedule: Q01DX009 (ip), vehicle: water 114 % of control | endpoint: median survival time, dose: 0.25 mg/kg/injection, schedule: Q01DX002 (ip), vehicle: water 110 % of control | endpoint: median survival time, dose: 0.25 mg/kg/injection, schedule: Q01DX009 (ip), vehicle: water 115 % of control | endpoint: median survival time, dose: 0.4 mg/kg/injection, schedule: Q01DX001 (ip), vehicle: saline 111 % of control | endpoint: median survival time, dose: 0.4 mg/kg/injection, schedule: Q01DX009 (ip), vehicle: water 100 % of control and 103 % of control | endpoint: median survival time, dose: 0.5 mg/kg/injection, schedule: Q01DX001 (ip), vehicle: water 99 % of control and 100 % of control | endpoint: median survival time, dose: 1.0 mg/kg/injection, schedule: Q01DX001 (ip), vehicle: water 102 % of control | endpoint: median survival time, dose: 2.0 mg/kg/injection, schedule: Q01DX001 (ip), vehicle: water 116 % of control | endpoint: median survival time, dose: 2.0 mg/kg/injection, schedule: Q01DX002 (ip), vehicle: water 108 % of control
